Laboratory results published in BindingDB's records for patent WO2025045746 (695 Avenue de la Résistance, 2025).

biological target: T1, NAD(+) hydrolase SARM1 [28-724] (UniProt Q6SZW1); assay: SARM1 Inhibitory Activity
T1 construct: 28-724
T1 sequence (Q6SZW1 whole entry): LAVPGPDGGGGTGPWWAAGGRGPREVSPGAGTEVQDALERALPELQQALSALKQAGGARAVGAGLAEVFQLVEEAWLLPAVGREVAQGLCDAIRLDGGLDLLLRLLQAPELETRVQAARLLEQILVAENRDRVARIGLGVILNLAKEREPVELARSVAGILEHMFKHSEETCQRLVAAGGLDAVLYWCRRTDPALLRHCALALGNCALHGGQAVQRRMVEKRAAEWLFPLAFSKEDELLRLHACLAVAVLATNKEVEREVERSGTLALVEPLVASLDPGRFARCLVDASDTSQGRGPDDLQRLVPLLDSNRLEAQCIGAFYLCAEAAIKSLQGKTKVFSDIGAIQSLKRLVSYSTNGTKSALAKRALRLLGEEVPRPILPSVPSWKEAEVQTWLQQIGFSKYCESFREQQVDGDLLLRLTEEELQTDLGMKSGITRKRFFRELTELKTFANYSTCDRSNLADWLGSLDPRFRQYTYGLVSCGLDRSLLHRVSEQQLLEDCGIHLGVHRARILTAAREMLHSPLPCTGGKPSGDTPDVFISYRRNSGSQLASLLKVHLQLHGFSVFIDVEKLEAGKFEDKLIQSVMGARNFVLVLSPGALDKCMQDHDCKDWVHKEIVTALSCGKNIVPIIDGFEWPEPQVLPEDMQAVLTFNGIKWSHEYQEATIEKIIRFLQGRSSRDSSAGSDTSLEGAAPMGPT
Protocol: Assay reagents were prepared in 25mM HEPES pH 7.2, 50mM NaCl, 1mM EDTA and 0.0025% Tween20. […] The peak area of NAD and linear ADPR were measured by a RapidFire High Throughput Mass Spectrometry System (Agilent Technologies, Santa Clara, CA) using an API5000 triple quadrupole mass spectrometer (AB Sciex Framingham, MA). The ratio of linear ADPR to NAD peak area was then plotted against compound concentration to obtain an IC50 as fitted via non-linear regression.

Row | IC50 | Compound
1 | 761 nM | O=C(c1cc(-c2ccnnc2)n[nH]1)N1C[C@H](c2ccc(Cl)cc2)[C@@H](O)C1 [WO2025045746, Example 31]
2 | 506 nM | O=C(c1cc(-c2ccnnc2)n[nH]1)N1C[C@@H](F)[C@H](c2ccc(Cl)cc2)C1 [WO2025045746, Example 75]
3 | 217 nM | C[C@H](O)[C@@H]1CN(C(=O)c2cc(-c3ccnnc3)n[nH]2)C[C@H]1c1ccc(Cl)cc1 [WO2025045746, Example 67]
4 | 172 nM | O=C(c1cc(-c2ccnnc2)n[nH]1)N1C[C@@H](O)[C@H](c2ccc(Cl)cc2)C1 [WO2025045746, Example 30]
5 | 188 nM | CC1CN(C(=O)c2cc(-c3ccnnc3)n[nH]2)CC1c1ccc(Br)cc1 (stereo unspecified) [WO2025045746, Example 46]

The remaining lines, values behind:

Row | Compound | IC50
6 | O=C(c1cc(-c2ccncc2)n[nH]1)N1CCC(c2ccc(F)cc2Cl)C1 (stereo unspecified) [WO2025045746, Example 8] | 458 nM
7 | Cc1ccc(C2CCN(C(=O)c3cc(-c4ccnnc4)n[nH]3)C2)cc1 (stereo unspecified) [WO2025045746, Example 14] | 2910 nM
8 | Cc1cnccc1-c1cc(C(=O)N2CC[C@@H](c3ccc(Cl)cc3)C2)[nH]n1 [WO2025045746, Example 56] | 500 nM
9 | O=C(c1cc(-c2ccncc2F)n[nH]1)N1CCC(c2ccc(Cl)cc2)C1 (stereo unspecified) [WO2025045746, Example 36] | 1220 nM
10 | O=C(c1cc(-c2ccncc2)n[nH]1)N1CC[C@H](c2ccc(Cl)nc2)C1 [WO2025045746, Example 28] | 682 nM
11 | COc1cc(C2CCN(C(=O)c3cc(-c4ccnnc4)n[nH]3)C2)cc(F)c1F (stereo unspecified) [WO2025045746, Example 33] | 2120 nM
